Assay results taken from the supplement of paper PMC10307832.

Tests used:
Test in all cases: relative viability (nuclei count vs DMSO), 5 days (fraction); higher = more cells survive
[1] = system: NCI-H1793
Method in brief: (§1)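 Lung cancer cell lines were seeded in 1536-well plates and dosed by pin tool the next day, with either a single drug or a fixed anchor-drug dose combined with five library-drug doses (not always all listed) spaced in √10 steps. Five days later, one step fixed the cells and stained their nuclei (final 0.05% Triton X-100, 1% formaldehyde, 1 ug/ml Hoechst), and nuclei were counted on 4× images. Relative viability is the nuclei count in treated wells divided by the count in vehicle wells, and each value is the median of duplicate plates.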

[2] = system: LK-2
Method in brief: as §1

[3] = system: NCI-H650
Method in brief: as §1

[4] = system: NCI-H2347
Method in brief: as §1

[5] = system: NCI-H1944
Method in brief: as §1

[6] = system: COR-L23
Method in brief: as §1

[7] = system: NCI-H1650
Method in brief: as §1

[8] = system: NCI-H727
Method in brief: as §1

[9] = system: 201T
Method in brief: as §1

[10] = system: PC-14
Method in brief: as §1

[11] = system: NCI-H460
Method in brief: as §1

[12] = system: NCI-H838
Method in brief: as §1

[13] = system: SW 1573
Method in brief: as §1

[14] = system: A-427
Method in brief: as §1

[15] = system: NCI-H23
Method in brief: as §1

[16] = system: H3255
Method in brief: as §1

[17] = system: SW 900
Method in brief: as §1

[18] = system: LCLC-103H
Method in brief: as §1

[19] = system: LU99A
Method in brief: as §1

[20] = system: PC-3 [JPC-3]
Method in brief: as §1

[21] = system: HCC-44
Method in brief: as §1

[22] = system: LCLC-97TM1
Method in brief: as §1

**Q.** Which relative viability ([1]; first compound 0.04 µM) does the source give for `O=C(O)c1ccc(-c2c[nH]c3ncc(-c4ccccc4)cc23)cc1C1CCCC1` + Nc1ncn([C@H]2C[C@H](O)[C@@H](CO)O2)c(=O)n1 [Decitabine] (partner 2 µM) here?
**A.** 0.434

**Q.** And the relative viability ([1]; first compound 0.1265 µM)?
**A.** 0.527

**Q.** And the relative viability ([1]; first compound 0.4 µM)?
**A.** 0.519

**Q.** What about the relative viability ([1]; first compound 1.265 µM) of the same compound?
**A.** 0.334

**Q.** And the relative viability ([2]; first compound 0.04 µM)?
**A.** 0.253

**Q.** What about the relative viability ([2]; first compound 0.1265 µM) of the same compound?
**A.** 0.327

**Q.** What about the relative viability ([2]; first compound 0.4 µM) of the same compound?
**A.** 0.28

**Q.** And the relative viability ([2]; first compound 1.265 µM)?
**A.** 0.333

**Q.** And the relative viability ([3]; first compound 0.04 µM)?
**A.** 0.284

**Q.** What about the relative viability ([3]; first compound 0.1265 µM) of the same compound?
**A.** 0.317

**Q.** What about the relative viability ([3]; first compound 0.4 µM) of the same compound?
**A.** 0.329

**Q.** What about the relative viability ([3]; first compound 1.265 µM) of the same compound?
**A.** 0.274

**Q.** And the relative viability ([4]; first compound 0.04 µM)?
**A.** 0.609

**Q.** And the relative viability ([4]; first compound 0.1265 µM)?
**A.** 0.603

**Q.** And the relative viability ([4]; first compound 0.4 µM)?
**A.** 0.647

**Q.** What about the relative viability ([4]; first compound 1.265 µM) of the same compound?
**A.** 0.582

**Q.** What about the relative viability ([5]; first compound 0.04 µM) of the same compound?
**A.** 0.448

**Q.** What about the relative viability ([5]; first compound 0.1265 µM) of the same compound?
**A.** 0.437

**Q.** What about the relative viability ([5]; first compound 0.4 µM) of the same compound?
**A.** 0.423

**Q.** What about the relative viability ([5]; first compound 1.265 µM) of the same compound?
**A.** 0.402

**Q.** And the relative viability ([6]; first compound 0.04 µM)?
**A.** 0.446

**Q.** What about the relative viability ([6]; first compound 0.1265 µM) of the same compound?
**A.** 0.414

**Q.** What about the relative viability ([6]; first compound 0.4 µM) of the same compound?
**A.** 0.365

**Q.** And the relative viability ([6]; first compound 1.265 µM)?
**A.** 0.327

**Q.** And the relative viability ([7]; first compound 0.04 µM)?
**A.** 0.409

**Q.** And the relative viability ([7]; first compound 0.1265 µM)?
**A.** 0.345

**Q.** And the relative viability ([7]; first compound 0.4 µM)?
**A.** 0.404

**Q.** And the relative viability ([7]; first compound 1.265 µM)?
**A.** 0.263

**Q.** And the relative viability ([8]; first compound 0.04 µM)?
**A.** 0.77

**Q.** And the relative viability ([8]; first compound 0.1265 µM)?
**A.** 0.848

**Q.** And the relative viability ([8]; first compound 0.4 µM)?
**A.** 0.818

**Q.** What about the relative viability ([8]; first compound 1.265 µM) of the same compound?
**A.** 0.788

**Q.** And the relative viability ([9]; first compound 0.04 µM)?
**A.** 0.862

**Q.** And the relative viability ([9]; first compound 0.1265 µM)?
**A.** 0.808

**Q.** And the relative viability ([9]; first compound 0.4 µM)?
**A.** 0.805

**Q.** What about the relative viability ([9]; first compound 1.265 µM) of the same compound?
**A.** 0.811

**Q.** And the relative viability ([10]; first compound 0.04 µM)?
**A.** 0.19

**Q.** And the relative viability ([10]; first compound 0.1265 µM)?
**A.** 0.211

**Q.** What about the relative viability ([10]; first compound 0.4 µM) of the same compound?
**A.** 0.213

**Q.** And the relative viability ([10]; first compound 1.265 µM)?
**A.** 0.195

**Q.** And the relative viability ([11]; first compound 0.04 µM)?
**A.** 0.521

**Q.** What about the relative viability ([11]; first compound 0.1265 µM) of the same compound?
**A.** 0.531

**Q.** What about the relative viability ([11]; first compound 0.4 µM) of the same compound?
**A.** 0.468

**Q.** And the relative viability ([11]; first compound 1.265 µM)?
**A.** 0.459

**Q.** What about the relative viability ([12]; first compound 0.04 µM) of the same compound?
**A.** 0.45

**Q.** What about the relative viability ([12]; first compound 0.1265 µM) of the same compound?
**A.** 0.475

**Q.** What about the relative viability ([12]; first compound 0.4 µM) of the same compound?
**A.** 0.416

**Q.** What about the relative viability ([12]; first compound 1.265 µM) of the same compound?
**A.** 0.357

**Q.** What about the relative viability ([13]; first compound 0.04 µM) of the same compound?
**A.** 0.403

**Q.** What about the relative viability ([13]; first compound 0.1265 µM) of the same compound?
**A.** 0.546

**Q.** And the relative viability ([13]; first compound 0.4 µM)?
**A.** 0.505

**Q.** And the relative viability ([13]; first compound 1.265 µM)?
**A.** 0.407

**Q.** And the relative viability ([14]; first compound 0.04 µM)?
**A.** 0.59

**Q.** And the relative viability ([14]; first compound 0.1265 µM)?
**A.** 0.594

**Q.** And the relative viability ([14]; first compound 0.4 µM)?
**A.** 0.5

**Q.** What about the relative viability ([14]; first compound 1.265 µM) of the same compound?
**A.** 0.475

**Q.** What about the relative viability ([15]; first compound 0.04 µM) of the same compound?
**A.** 0.329

**Q.** And the relative viability ([15]; first compound 0.1265 µM)?
**A.** 0.256

**Q.** And the relative viability ([15]; first compound 0.4 µM)?
**A.** 0.29

**Q.** And the relative viability ([15]; first compound 1.265 µM)?
**A.** 0.251

**Q.** And the relative viability ([16]; first compound 0.04 µM)?
**A.** 0.64

**Q.** And the relative viability ([16]; first compound 0.1265 µM)?
**A.** 0.477

**Q.** What about the relative viability ([16]; first compound 0.4 µM) of the same compound?
**A.** 0.513

**Q.** And the relative viability ([16]; first compound 1.265 µM)?
**A.** 0.495

**Q.** What about the relative viability ([17]; first compound 0.04 µM) of the same compound?
**A.** 0.437

**Q.** And the relative viability ([17]; first compound 0.1265 µM)?
**A.** 0.456

**Q.** And the relative viability ([17]; first compound 0.4 µM)?
**A.** 0.38

**Q.** What about the relative viability ([17]; first compound 1.265 µM) of the same compound?
**A.** 0.344

**Q.** And the relative viability ([18]; first compound 0.04 µM)?
**A.** 0.767

**Q.** What about the relative viability ([18]; first compound 0.1265 µM) of the same compound?
**A.** 0.789

**Q.** And the relative viability ([18]; first compound 0.4 µM)?
**A.** 0.746

**Q.** What about the relative viability ([18]; first compound 1.265 µM) of the same compound?
**A.** 0.667

**Q.** What about the relative viability ([19]; first compound 0.04 µM) of the same compound?
**A.** 0.88

**Q.** What about the relative viability ([19]; first compound 0.1265 µM) of the same compound?
**A.** 0.837

**Q.** And the relative viability ([19]; first compound 0.4 µM)?
**A.** 0.822

**Q.** And the relative viability ([19]; first compound 1.265 µM)?
**A.** 0.576

**Q.** And the relative viability ([20]; first compound 0.04 µM)?
**A.** 0.824

**Q.** What about the relative viability ([20]; first compound 0.1265 µM) of the same compound?
**A.** 0.835

**Q.** And the relative viability ([20]; first compound 0.4 µM)?
**A.** 0.939

**Q.** What about the relative viability ([20]; first compound 1.265 µM) of the same compound?
**A.** 0.74

**Q.** What about the relative viability ([21]; first compound 0.04 µM) of the same compound?
**A.** 0.973

**Q.** And the relative viability ([21]; first compound 0.1265 µM)?
**A.** 0.95

**Q.** And the relative viability ([21]; first compound 0.4 µM)?
**A.** 0.962

**Q.** And the relative viability ([21]; first compound 1.265 µM)?
**A.** 0.864

**Q.** What about the relative viability ([22]; first compound 0.04 µM) of the same compound?
**A.** 0.254

**Q.** And the relative viability ([22]; first compound 0.1265 µM)?
**A.** 0.226

**Q.** And the relative viability ([22]; first compound 0.4 µM)?
**A.** 0.207

**Q.** What about the relative viability ([22]; first compound 1.265 µM) of the same compound?
**A.** 0.195
